# Assay results reported in patent US4056625A, “Pesticidal compositions containing benzodioxole derivatives and methods of combating pests” (priority 1972, dated 1977).
# Tests used:
# Assay type in all cases: in vivo
# [1] = tested on: second instar larvae of the cabbage white butterfly (Pieris brassicae); test: Cabbage white butterfly larvae on treated cabbage leaf discs (Examples 41-48); details: 10, 5, 1, 0.5 and 0.25 pounds per acre, three replications, after 48 hours
# Source text: 7 centimeter diameter circular discs of cabbage leaves were painted with 1 milliliter aqueous acetone solutions of each of the following compounds:
# in each case at concentrations equivalent to leaf applications of 10, 5, 1, 0.5 and 0.25 pounds per acre (11.2, 5.6, 1.12, 0.56 and 0.28 kg./hectare) of active ingredient. When the deposit on the leaf discs had dried, each leaf disc was placed in a 9 centimeter diameter Petri dish, infested with ten second instar larvae of the cabbage white butterfly (Pieris brassicae) and covered with a glass lid. Three replications were made with each compound at each concentration level.
# [2] = tested on: first instar larvae of the sheep blowfly (Lucilia sericata); test: Sheep blowfly larvae on treated cotton wool pads (Examples 53-60); details: 1/2 ml. of acetone solution on cotton wool pads, after 24 hours
# Procedure: Cylindrical pads of cotton wool, approximate diameter 1 cm., length 2 cms. were treated with 1/2 ml. of acetone solutions of the following carbamates:
# After leaving for 12 hours to dry, the pads were treated with 1 ml. of sheep blood serum and infested with 20 first instar larvae of the sheep blowfly (Lucilia sericata). After 24 hours, the blowflies were examined and found to be all dead; insects similarly infested on untreated pads were unaffected.
# [3] = tested on: adult female houseflies (Musca domestica); test: Housefly mortality on treated filter papers (Examples 32-40); details: 100 milligrams per square foot, after 24 hours
# Source text: 9 centimeter diameter filter papers treated with aqueous acetone solutions of each of the compounds
# at rates equivalent to 100 milligrams per square foot (100 mgm./0.09 m^2.) of active ingredient were placed in 9 centimeter diameter Petri dishes. Batches of adult female houseflies (Musca domestica) lightly anaesthetised with carbon dioxide were then introduced into the dishes and a glass lid placed over each.
# [4] = tested on: adult female yellow fever mosquitos (Aedes aegypti); test: Yellow fever mosquitos in coated glass tubes (Examples 61-64); details: 3 mg of active ingredient per square foot, after 24 hours
# Procedure: Acetone solutions of the compounds
# were applied to the inside walls of glass tubes 9 cm high by 4.5 cm diameter so that after the acetone had evaporated a coating equivalent to 3 mg of active ingredient per square foot remained. Batches of adult female yellow fever mosquitos (Aedes aegypti) were then caged in the tubes.
# [5] = tested on: first stage larvae of the cattle tick, Boophilus microplus; test: Cattle tick larvae in treated filter paper packets (Example 65); details: 30 parts per million, 25° C, 24 hours
# Procedure: Filter papers, diameter 9 cm., were treated with 1 ml. of acetone solutions containing 30 parts per million of 2,2-dimethyl-1,3-benzodioxol-4-yl N-methylcarbamate or 7-chloro-2,2-dimethyl-1,3-benzodioxol-4-yl N-methylcarbamate. When they had dried, they were folded into quadrant shaped packets, infested with 20 first stage larvae of the cattle tick, Boophilus microplus, closed with a metal clip and kept at 25° C for 24 hours.
# [6] = tested on: adult apterous vetch aphids (Megoura viciae); test: Vetch aphids on sprayed field beans (Examples 49 and 50); details: 100 parts per million, 50 gallons per acre, 24 hours
# Source text: Aqueous suspensions containing 100 parts per million of 2,2-dimethyl-1,3-benzodioxol-4-yl N-methylcarbamate and 2,2-dimethyl-1,3-benzodioxol-4-yl N-acetyl-N-methylcarbamate were sprayed at a rate equivalent to 50 gallons per acre (585 liters per hectare) on young field beans (Vicia faba) infested with adult apterous vetch aphids (Megoura viciae). After treatment the plants were enclosed in glass cages with gauze tops for ventilation.
# [7] = tested on: 2nd stage nymph of the German cockroach (Blattella germanica); test: LC50 against German cockroach nymphs in treated glass tubes (Example 69)
# Procedure: Compounds 2 and 4 and also 2,2-dimethyl-1,3- benzodioxol-4-yl N-methylcarbamate(compound 5) and 2,2-dimethyl-1,3-benzodioxol-4-yl N-acetyl-N-methylcarbamate (compound 6) were tested for activity against the 2nd stage nymph of the German cockroach (Blattella germanica), of the order Orthoptera, by treating the walls of glass tubes (9.0 cm high × 4.5 cm diameter) with acetone solutions of the compounds and after the acetone had evaporated caging the insects in the tubes for 48 hours. The highest dosage rate employed was 50 mg/ft^2 (532 mg/m^2).
# (§1) If complete kill was obtained at the highest dosage rate, the test was repeated using a logarithmically reducing dose regime until less than 50% mortality was recorded. The LC50 was then calculated from the line of best fit from the data plotted on log/provit analysis paper.
# The LC50 values are abbreviated on a 0-6 scale where
# [8] = tested on: adult female houseflies (Musca domestica); test: LC50 against adult female houseflies on filter papers (Example 70)
# Procedure: as §1
# (§2) Similarly LC50 values were obtained against various pests as described in Examples 70-73 where, however, the LC50 values are abbreviated on a 0-6 scale where
# LC50 values were obtained for each of Compounds 1, 2, 3, 4, 5 and 6 against adult female houseflies (Musca domestica), of the order Diptera. The tests were carried out by adding acetone solutions of the compounds to 9 cm diameter filter papers in the base of 9 cm diameter crystallising dishes, placing the houseflies in the dishes after the acetone had evaporated, closing the dishes with Petri dish lids and counting the mortality after 24 hours. The highest dosage rate employed was 1000 mg/ft^2 (10.65 g/m^2).
# [9] = tested on: larvae of the sheep maggot fly (Lucilia sericata); test: LC50 against sheep maggot fly larvae on dental rolls (Example 71)
# Procedure: as §1, §2
# Similarly, LC50 values were obtained for each of Compounds 1, 2, 3, 4, 5 and 6 against larvae of the sheep maggot fly (Lucilia sericata), of the order Diptera. The tests were carried out by placing newly hatched larvae on dental rolls contained in glass vials and soaked with 1 ml of blood serum containing the compound. The mortality was assessed after 24 hours. The highest dosage rate employed was 1000 ppm.
# [10] = tested on: adult red spider mites (Tetranychus telarius); test: LC50 against adult red spider mites on sprayed French beans (Example 73); details: 48 h, read-out: LC50 value
# Procedure: as §1, §2
# Similarly, LC50 values were obtained for each of Compounds 1, 2, 4, 5 and 6 against adult red spider mites (Tetranychus telarius), of the order Acarina. The tests were carried out by spraying infected French beans with a 50% acetone water solution of the compound, containing 500 ppm of Lissapol NX as a wetting agent, and recording the mortality after 48 hours. The highest dosage rate employed was 1000 ppm which is equivalent to 10 lb/acre (11.20 kg/ha).
# [11] = tested on: German cockroaches (Blattella germanica); test: Persistency against German cockroaches on treated glass plates (Example 74); details: 100 mg/ft^2 (1.065 g/m^2), 2nd stage nymphs, 7 day intervals until less than 50% mortality
# Procedure: Persistency was measured against German cockroaches (Blattella germanica), or the order Orthoptera, by treating glass plates with acetone solutions of the compunds listed below to produce a deposit equivalent to 100 mg/ft^2 (1.065 g/m^2), and caging 2nd stage nymph cockroaches on these surfaces for 48 hours at 7 day intervals until less than 50% mortality was recorded.
# [12] = tested on: yellow fever mosquito (Aedes aegypti); test: Persistency against yellow fever mosquito on treated glass plates (Example 75); details: 100 mg/ft^2 (1.065 g/m^2), adult female mosquitos, 7 day intervals until less than 50% mortality
# Procedure: Persistency was measured against yellow fever mosquito (Aedes aegypti), of the order Diptera, by treating glass plates with acetone solutions of the compounds listed below to produce a deposit equivalent to 100 mg/ft^2 (1.065 g/m^2), and caging adult female mosquitos on these surfaces for 24 hours at 7 day intervals until less than 50% mortality was recorded.
smiles,measurement,setting,value
"CNC(=O)Oc1cccc2c1OC1(CCCC1)O2 [2,2-tetramethylene-1,3-benzodioxol-4-yl N-methylcarbamate]",mortality of cabbage white butterfly larvae,[1],all found to be dead
"CCC1(CC)Oc2cccc(OC(=O)NC)c2O1 [2,2-diethyl-1,3-benzodioxol-4-yl N-methylcarbamate]",mortality of sheep blowfly larvae,[2],all dead
"CC(=O)N(C)C(=O)Oc1cccc2c1OC(C)O2 (centres unmarked) [2-methyl-1,3-benzodioxol-4-yl N-acetyl-N-methylcarbamate]",mortality of houseflies,[3],all found to be dead
"CC(=O)N(C)C(=O)Oc1cccc2c1OC1(CCCCC1)O2 [2,2-pentamethylene-1,3-benzodioxol-4-yl N-acetyl-N-methylcarbamate]",mortality of yellow fever mosquitos,[4],all found to be dead
"CNC(=O)Oc1cccc2c1OC(C)(C(C)(C)C)O2 (centres unmarked) [2-tert-butyl-2-methyl-1,3-benzodioxol-4-yl N-methylcarbamate]",mortality of sheep blowfly larvae,[2],all dead
"CNC(=O)Oc1ccc(C)c2c1OC(C)(C)O2 [2,2,7-trimethyl-1,3-benzodioxol-4-yl N-methylcarbamate]",mortality of cabbage white butterfly larvae,[1],all found to be dead
same,mortality of sheep blowfly larvae,[2],all dead
"CC(=O)N(C)C(=O)Oc1cc(C)cc2c1OC(C)(C)O2 [2,2,6-trimethyl-1,3-benzodioxol-4-yl N-acetyl-N-methylcarbamate]",mortality of houseflies,[3],all found to be dead
"CC(=O)N(C)C(=O)Oc1cccc2c1OC1(CCCC1)O2 [2,2-tetramethylene-1,3-benzodioxol-4-yl N-acetyl-N-methylcarbamate]",mortality of yellow fever mosquitos,[4],all found to be dead
"C#CCNC(=O)Oc1cccc2c1OC(C)(C)O2 [2,2-dimethyl-1,3-benzodioxol-4-yl N-propargylcarbamate]",mortality of cabbage white butterfly larvae,[1],all found to be dead
"CNC(=O)Oc1cccc2c1OC(C)O2 (centres unmarked) [2-methyl-1,3-benzodioxol-4-yl N-methylcarbamate]",mortality of sheep blowfly larvae,[2],all dead
"CCC1(C)Oc2cccc(OC(=O)NC)c2O1 (centres unmarked) [2-ethyl-2-methyl-1,3-benzodioxol-4-yl N-methylcarbamate]",mortality of cabbage white butterfly larvae,[1],all found to be dead
same,mortality of sheep blowfly larvae,[2],all dead
"CCCC(=O)N(C)C(=O)Oc1cccc2c1OCO2 [1,3-benzodioxol-4-yl N-butyryl-N-methylcarbamate]",mortality of houseflies,[3],all found to be dead
"CCC1(CC)Oc2cccc(OC(=O)N(C)C(C)=O)c2O1 [2,2-diethyl-1,3-benzodioxol-4-yl N-acetyl-N-methylcarbamate]",mortality of yellow fever mosquitos,[4],all found to be dead
"C#CCN(C(C)=O)C(=O)Oc1cccc2c1OC(C)(C)O2 [2,2-dimethyl-1,3-benzodioxol-4-yl N-acetyl-N-propargylcarbamate]",mortality of cabbage white butterfly larvae,[1],all found to be dead
"CNC(=O)Oc1ccc(Cl)c2c1OC(C)(C)O2 [7-chloro-2,2-dimethyl-1,3-benzodioxol-4-yl N-methylcarbamate]",mortality of cattle tick larvae,[5],all the ticks in the treated filter papers were dead
"CC(=O)N(C)C(=O)Oc1cccc2c1OC(C)(C(C)(C)C)O2 (centres unmarked) [2-methyl-2-t-butyl-1,3-benzodioxol-4-yl N-acetyl-N-methylcarbamate]",mortality of yellow fever mosquitos,[4],all found to be dead
"CC(=O)N(C)C(=O)Oc1cccc2c1OC(C)(C)O2 [Compound 6, 2,2-dimethyl-1,3-benzodioxol-4-yl N-acetyl-N-methylcarbamate]",mortality of houseflies,[3],all found to be dead
same,mortality of cabbage white butterfly larvae,[1],all found to be dead
same,kill of vetch aphids,[6],complete kill of the aphids in 24 hours
same,LC50 value,"[7]; 2nd stage nymph German cockroach, 48 hours, 0-6 scale",1 (15-50 mg/ft^2 (160-532 mg/m^2))
same,activity against cockroaches (in words),[7]; cockroaches,low activity against cockroaches
same,LC50 value,"[8]; adult female houseflies, 24 hours, 0-6 scale (mg/ft^2)",3 (30-99 mg/ft^2 (0.32 - 1.06 g/m^2))
same,activity against houseflies (in words),[8]; compared with compound 5,worse
same,LC50,"[9]; Lucilia sericata, 24 h, read-out: LC50 value",30 to 99 µg/mL
same,activity against sheep maggot fly (in words),[9]; compared with compound 5,worse
same,LC50,[10],100 to 299 µg/mL
same,Persistency,[11],8 to 14 days
same,Persistency,[12],15 to 21 days
"CNC(=O)Oc1cccc2c1OCO2 [1,3-benzodioxol-4-yl N-methylcarbamate]",mortality of houseflies,[3],all found to be dead
"C=CCN(C(C)=O)C(=O)Oc1cccc2c1OC(C)(C)O2 [2,2-dimethyl-1,3-benzodioxol-4-yl N-acetyl-N-allylcarbamate]",mortality of houseflies,[3],all found to be dead
"CCc1ccc(OC(=O)NC)c2c1OC(C)(C)O2 [7-ethyl-2,2-dimethyl-1,3-benzodioxol-4-yl N-methylcarbamate]",mortality of sheep blowfly larvae,[2],all dead
"C=CCNC(=O)Oc1cccc2c1OC(C)(C)O2 [2,2-dimethyl-1,3-benzodioxol-4-yl N-allylcarbamate]",mortality of cabbage white butterfly larvae,[1],all found to be dead
"CNC(=O)Oc1cc(C)cc2c1OC(C)(C)O2 [2,2,6-trimethyl-1,3-benzodioxol-4-yl N-methylcarbamate]",mortality of sheep blowfly larvae,[2],all dead
